Source: patent US12059400B2, “Medical compound” (VERA SALUS RICERCA S.R.L., priority 2017, dated 2024)

tested on: H1299, lung adenocarcinoma cells; assay: Cell proliferation, crystal violet method; assay type: cell-based, human; conditions: spectrophotometer, read-out: IC50 anti-proliferative effect, LC (H1299)
Procedure: The compound according to the invention, and in particular the synthetic quercetin derivatives described and illustrated herein were investigated in vitro by using human tumour cells and assessing their impact on the tumour proliferative capacity, with regard to the tumours described above. In particular, the following human tumour cell lines were assessed experimentally: 1) HCT116, colon adenocarcinoma cells; 2) H1299, lung adenocarcinoma cells; 3) A375, melanoma cells, and 4) A431, squamous skin cell carcinoma; 5) 786-0, renal carcinoma cells; 6) PC3, prostate carcinoma cells; 7) BT549, mammary carcinoma cells; 8) CAL27, tongue carcinoma cells (belonging to the head-and-neck carcinomas); 9) HepG2, hepatocellular carcinoma cells; 10) PANC-1, pancreas carcinoma cells; 11) T24, bladder carcinoma cells; 12) OVCAR-3, ovarian carcinoma cells. In addition, a normal human cell line, WS1 (skin fibroblasts) was also treated with the novel synthetic compounds.
(§1) Cell proliferation was quantified by the crystal violet method with a spectrophotometer. In short, after acquiring serial images (0, 24 and 48 hrs) with the EVOS XL Cell Imaging System microscope (Thermo Fisher Scientific), the cells imaged at 48 hrs were fixed with paraformaldehyde (4%) and stained with Crystal Violet (1%). Then, the specific absorbance (λ=590 nm) at 48 hrs was measured with a spectrophotometer (Infinite®200 PRO, Tecan). Data analysis was carried out by using ad-hoc Excel files for graphical representation and statistical processing (t-test). Moreover, the results obtained with Crystal Violet were confirmed by using another cell proliferation assessment method based on the real time cellular analyzer XCELLigence RTCA DP (ACEA Biosciences, Inc.). This tool allows cell growth to be monitored from electrical impedance-derived quantitative values (the so-called Cell Index) measured by tiny electrodes located at the base of the culture wells. Proliferation is monitored for several days (5-7) by setting a Cell Index per minute measure on the instrument. The data are analysed by processing various parameters calculated by the dedicated software, such as the cell duplication time, the slope and the Max Cell Index.
Cell proliferation was quantitated spectrophotometrically by the crystal violet method.

Row | Substance | IC50 [µM]
1 | 2-(3,4-dihydroxyphenyl)-5,7-dihydroxy-4-oxo-4H-chromen-3-yl acetate [Compound 4] | 15.9
2 | 2-(3,4-Dihydroxyphenyl)-3-hexyloxy-5,7-dihydroxy-4H-chromen-4-one [Compound 2] | 50.7
3 | 2-(3,4-Dihydroxyphenyl)-3-ethoxy-5,7-dihydroxy-4H-chromen-4-one [Compound 1] | 100
4 | 2-(3,4-dihydroxyphenyl)-5,7-dihydroxy-4-oxo-4H-chromen-3-yl palmitate [Compound 5] | 50.5
5 | 2-(3,4-Dihydroxyphenyl)-3-hexadecyloxy-5,7-dihydroxy-4H-chromen-4-one [Compound 3] | 34.9

tested on: SCC cells (A431); assay: Cell proliferation, crystal violet method; assay type: cell-based, human; conditions: 90 μM; FIG. 2a, 2b
Procedure: as §1, with “The compound according to the invention, and in particular the synthetic quercetin derivatives described and illustrated herein were investigated in vitro by using human tumour cells and assessing their impact on the tumour proliferative capacity, with regard to the tumours described above. In particular, the following human tumour cell lines were assessed experimentally: 1) HCT116, colon adenocarcinoma cells; 2) H1299, lung adenocarcinoma cells; 3) A375, melanoma cells, and 4) A431, squamous skin cell carcinoma; 5) 786-0, renal carcinoma cells; 6) PC3, prostate carcinoma cells; 7) BT549, mammary carcinoma cells; 8) CAL27, tongue carcinoma cells (belonging to the head-and-neck carcinomas); 9) HepG2, hepatocellular carcinoma cells; 10) PANC-1, pancreas carcinoma cells; 11) T24, bladder carcinoma cells; 12) OVCAR-3, ovarian carcinoma cells. In addition, a normal human cell line, WS1 (skin fibroblasts) was also treated with the novel synthetic compounds. Cell proliferation” for “Cell proliferation”, “Cell Index. […] Cell proliferation was quantitated spectrophotometrically by the crystal violet method.” for “Cell Index.”

Row | Substance | A431 cell growth vs vehicle control
6 | 2-(3,4-dihydroxyphenyl)-5,7-dihydroxy-4-oxo-4H-chromen-3-yl acetate [Compound 4] | significantly inhibit
7 | 2-(3,4-Dihydroxyphenyl)-3-hexyloxy-5,7-dihydroxy-4H-chromen-4-one [Compound 2] | significantly inhibit
8 | 2-(3,4-dihydroxyphenyl)-5,7-dihydroxy-4-oxo-4H-chromen-3-yl palmitate [Compound 5] | significantly inhibit

same assay, conditions: crystal violet, spectrophotometer; read-out: IC50 anti-proliferative effect, SCC (A431)

Row | Substance | IC50 [µM]
9 | 2-(3,4-dihydroxyphenyl)-5,7-dihydroxy-4-oxo-4H-chromen-3-yl acetate [Compound 4] | 31
10 | 2-(3,4-Dihydroxyphenyl)-3-hexyloxy-5,7-dihydroxy-4H-chromen-4-one [Compound 2] | 40.3
11 | 2-(3,4-dihydroxyphenyl)-5,7-dihydroxy-4-oxo-4H-chromen-3-yl palmitate [Compound 5] | 25.5

tested on: human bladder carcinoma cells (T24); assay: Cell proliferation, crystal violet method; assay type: cell-based; conditions: 80 μM; FIG. 10a, 10b
Procedure: as §1, with “The compound according to the invention, and in particular the synthetic quercetin derivatives described and illustrated herein were investigated in vitro by using human tumour cells and assessing their impact on the tumour proliferative capacity, with regard to the tumours described above. In particular, the following human tumour cell lines were assessed experimentally: 1) HCT116, colon adenocarcinoma cells; 2) H1299, lung adenocarcinoma cells; 3) A375, melanoma cells, and 4) A431, squamous skin cell carcinoma; 5) 786-0, renal carcinoma cells; 6) PC3, prostate carcinoma cells; 7) BT549, mammary carcinoma cells; 8) CAL27, tongue carcinoma cells (belonging to the head-and-neck carcinomas); 9) HepG2, hepatocellular carcinoma cells; 10) PANC-1, pancreas carcinoma cells; 11) T24, bladder carcinoma cells; 12) OVCAR-3, ovarian carcinoma cells. In addition, a normal human cell line, WS1 (skin fibroblasts) was also treated with the novel synthetic compounds. Cell proliferation” for “Cell proliferation”, “Cell Index. […] Cell proliferation was quantitated spectrophotometrically by the crystal violet method.” for “Cell Index.”

Row | Substance | T24 cell growth vs vehicle control
12 | 2-(3,4-dihydroxyphenyl)-5,7-dihydroxy-4-oxo-4H-chromen-3-yl acetate [Compound 4] | significantly inhibit
13 | 2-(3,4-Dihydroxyphenyl)-3-hexyloxy-5,7-dihydroxy-4H-chromen-4-one [Compound 2] | significantly inhibit
14 | 2-(3,4-dihydroxyphenyl)-5,7-dihydroxy-4-oxo-4H-chromen-3-yl palmitate [Compound 5] | significantly inhibit
15 | 2-(3,4-Dihydroxyphenyl)-3-hexadecyloxy-5,7-dihydroxy-4H-chromen-4-one [Compound 3] | significantly inhibit

same assay, conditions: crystal violet, spectrophotometer; read-out: IC50 anti-proliferative effect, BC (T24)

Row | Substance | IC50 [µM]
16 | 2-(3,4-dihydroxyphenyl)-5,7-dihydroxy-4-oxo-4H-chromen-3-yl acetate [Compound 4] | 45.5
17 | 2-(3,4-Dihydroxyphenyl)-3-hexyloxy-5,7-dihydroxy-4H-chromen-4-one [Compound 2] | 66.8
18 | 2-(3,4-Dihydroxyphenyl)-3-ethoxy-5,7-dihydroxy-4H-chromen-4-one [Compound 1] | > 1000
19 | 2-(3,4-dihydroxyphenyl)-5,7-dihydroxy-4-oxo-4H-chromen-3-yl palmitate [Compound 5] | 50.5
20 | 2-(3,4-Dihydroxyphenyl)-3-hexadecyloxy-5,7-dihydroxy-4H-chromen-4-one [Compound 3] | 44.9

tested on: human renal carcinoma cells (786-0); assay: Cell proliferation, crystal violet method; assay type: cell-based; conditions: 80 μM; FIG. 4a, 4b
Procedure: as §1, with “The compound according to the invention, and in particular the synthetic quercetin derivatives described and illustrated herein were investigated in vitro by using human tumour cells and assessing their impact on the tumour proliferative capacity, with regard to the tumours described above. In particular, the following human tumour cell lines were assessed experimentally: 1) HCT116, colon adenocarcinoma cells; 2) H1299, lung adenocarcinoma cells; 3) A375, melanoma cells, and 4) A431, squamous skin cell carcinoma; 5) 786-0, renal carcinoma cells; 6) PC3, prostate carcinoma cells; 7) BT549, mammary carcinoma cells; 8) CAL27, tongue carcinoma cells (belonging to the head-and-neck carcinomas); 9) HepG2, hepatocellular carcinoma cells; 10) PANC-1, pancreas carcinoma cells; 11) T24, bladder carcinoma cells; 12) OVCAR-3, ovarian carcinoma cells. In addition, a normal human cell line, WS1 (skin fibroblasts) was also treated with the novel synthetic compounds. Cell proliferation” for “Cell proliferation”, “Cell Index. […] Cell proliferation was quantitated spectrophotometrically by the crystal violet method.” for “Cell Index.”

Row | Substance | 786-0 cell growth vs vehicle control
21 | 2-(3,4-dihydroxyphenyl)-5,7-dihydroxy-4-oxo-4H-chromen-3-yl acetate [Compound 4] | significantly inhibit
22 | 2-(3,4-Dihydroxyphenyl)-3-hexyloxy-5,7-dihydroxy-4H-chromen-4-one [Compound 2] | significantly inhibit
23 | 2-(3,4-Dihydroxyphenyl)-3-ethoxy-5,7-dihydroxy-4H-chromen-4-one [Compound 1] | significantly inhibit
24 | 2-(3,4-dihydroxyphenyl)-5,7-dihydroxy-4-oxo-4H-chromen-3-yl palmitate [Compound 5] | significantly inhibit
25 | 2-(3,4-Dihydroxyphenyl)-3-hexadecyloxy-5,7-dihydroxy-4H-chromen-4-one [Compound 3] | significantly inhibit

same assay, conditions: crystal violet, spectrophotometer; read-out: IC50 anti-proliferative effect, RCC - (786-O)

Row | Substance | IC50 [µM]
26 | 2-(3,4-dihydroxyphenyl)-5,7-dihydroxy-4-oxo-4H-chromen-3-yl acetate [Compound 4] | 41.2
27 | 2-(3,4-Dihydroxyphenyl)-3-hexyloxy-5,7-dihydroxy-4H-chromen-4-one [Compound 2] | 72.5
28 | 2-(3,4-Dihydroxyphenyl)-3-ethoxy-5,7-dihydroxy-4H-chromen-4-one [Compound 1] | 149
29 | 2-(3,4-dihydroxyphenyl)-5,7-dihydroxy-4-oxo-4H-chromen-3-yl palmitate [Compound 5] | 32.6
30 | 2-(3,4-Dihydroxyphenyl)-3-hexadecyloxy-5,7-dihydroxy-4H-chromen-4-one [Compound 3] | 65.4

tested on: human pancreatic carcinoma cells (PANC-1); assay: Cell proliferation, crystal violet method; assay type: cell-based; conditions: 80 μM; FIG. 9a, 9b
Procedure: as §1, with “The compound according to the invention, and in particular the synthetic quercetin derivatives described and illustrated herein were investigated in vitro by using human tumour cells and assessing their impact on the tumour proliferative capacity, with regard to the tumours described above. In particular, the following human tumour cell lines were assessed experimentally: 1) HCT116, colon adenocarcinoma cells; 2) H1299, lung adenocarcinoma cells; 3) A375, melanoma cells, and 4) A431, squamous skin cell carcinoma; 5) 786-0, renal carcinoma cells; 6) PC3, prostate carcinoma cells; 7) BT549, mammary carcinoma cells; 8) CAL27, tongue carcinoma cells (belonging to the head-and-neck carcinomas); 9) HepG2, hepatocellular carcinoma cells; 10) PANC-1, pancreas carcinoma cells; 11) T24, bladder carcinoma cells; 12) OVCAR-3, ovarian carcinoma cells. In addition, a normal human cell line, WS1 (skin fibroblasts) was also treated with the novel synthetic compounds. Cell proliferation” for “Cell proliferation”, “Cell Index. […] Cell proliferation was quantitated spectrophotometrically by the crystal violet method.” for “Cell Index.”

Row | Substance | PANC-1 cell growth vs vehicle control
31 | 2-(3,4-dihydroxyphenyl)-5,7-dihydroxy-4-oxo-4H-chromen-3-yl acetate [Compound 4] | significantly inhibit
32 | 2-(3,4-Dihydroxyphenyl)-3-hexyloxy-5,7-dihydroxy-4H-chromen-4-one [Compound 2] | significantly inhibit
33 | 2-(3,4-dihydroxyphenyl)-5,7-dihydroxy-4-oxo-4H-chromen-3-yl palmitate [Compound 5] | significantly inhibit
34 | 2-(3,4-Dihydroxyphenyl)-3-hexadecyloxy-5,7-dihydroxy-4H-chromen-4-one [Compound 3] | significantly inhibit

same assay, conditions: crystal violet, spectrophotometer; read-out: IC50 anti-proliferative effect, PCC (PANC-1)

Row | Substance | IC50 [µM]
35 | 2-(3,4-dihydroxyphenyl)-5,7-dihydroxy-4-oxo-4H-chromen-3-yl acetate [Compound 4] | 69.6
36 | 2-(3,4-Dihydroxyphenyl)-3-hexyloxy-5,7-dihydroxy-4H-chromen-4-one [Compound 2] | 95.4
37 | 2-(3,4-Dihydroxyphenyl)-3-ethoxy-5,7-dihydroxy-4H-chromen-4-one [Compound 1] | > 1000
38 | 2-(3,4-dihydroxyphenyl)-5,7-dihydroxy-4-oxo-4H-chromen-3-yl palmitate [Compound 5] | 69.4
39 | 2-(3,4-Dihydroxyphenyl)-3-hexadecyloxy-5,7-dihydroxy-4H-chromen-4-one [Compound 3] | 156

tested on: human prostate carcinoma cells (PC3); assay: Cell proliferation, crystal violet method; assay type: cell-based; conditions: 80 μM; FIG. 5a, 5b
Procedure: as §1, with “The compound according to the invention, and in particular the synthetic quercetin derivatives described and illustrated herein were investigated in vitro by using human tumour cells and assessing their impact on the tumour proliferative capacity, with regard to the tumours described above. In particular, the following human tumour cell lines were assessed experimentally: 1) HCT116, colon adenocarcinoma cells; 2) H1299, lung adenocarcinoma cells; 3) A375, melanoma cells, and 4) A431, squamous skin cell carcinoma; 5) 786-0, renal carcinoma cells; 6) PC3, prostate carcinoma cells; 7) BT549, mammary carcinoma cells; 8) CAL27, tongue carcinoma cells (belonging to the head-and-neck carcinomas); 9) HepG2, hepatocellular carcinoma cells; 10) PANC-1, pancreas carcinoma cells; 11) T24, bladder carcinoma cells; 12) OVCAR-3, ovarian carcinoma cells. In addition, a normal human cell line, WS1 (skin fibroblasts) was also treated with the novel synthetic compounds. Cell proliferation” for “Cell proliferation”, “Cell Index. […] Cell proliferation was quantitated spectrophotometrically by the crystal violet method.” for “Cell Index.”

Row | Substance | PC3 cell growth vs vehicle control
40 | 2-(3,4-dihydroxyphenyl)-5,7-dihydroxy-4-oxo-4H-chromen-3-yl acetate [Compound 4] | significantly inhibit
41 | 2-(3,4-Dihydroxyphenyl)-3-ethoxy-5,7-dihydroxy-4H-chromen-4-one [Compound 1] | significantly inhibit
42 | 2-(3,4-dihydroxyphenyl)-5,7-dihydroxy-4-oxo-4H-chromen-3-yl palmitate [Compound 5] | significantly inhibit
43 | 2-(3,4-Dihydroxyphenyl)-3-hexadecyloxy-5,7-dihydroxy-4H-chromen-4-one [Compound 3] | significantly inhibit

same assay, conditions: crystal violet, spectrophotometer; read-out: IC50 anti-proliferative effect, PC - (PC3)

Row | Substance | IC50 [µM]
44 | 2-(3,4-dihydroxyphenyl)-5,7-dihydroxy-4-oxo-4H-chromen-3-yl acetate [Compound 4] | 34.9
45 | 2-(3,4-Dihydroxyphenyl)-3-hexyloxy-5,7-dihydroxy-4H-chromen-4-one [Compound 2] | 309
46 | 2-(3,4-Dihydroxyphenyl)-3-ethoxy-5,7-dihydroxy-4H-chromen-4-one [Compound 1] | 79.3
47 | 2-(3,4-dihydroxyphenyl)-5,7-dihydroxy-4-oxo-4H-chromen-3-yl palmitate [Compound 5] | 56.9
48 | 2-(3,4-Dihydroxyphenyl)-3-hexadecyloxy-5,7-dihydroxy-4H-chromen-4-one [Compound 3] | 46.2

tested on: human ovarian carcinoma cells (OVCAR-3); assay: Cell proliferation, crystal violet method; assay type: cell-based; conditions: 60 μM; FIG. 11a, 11b

Row | Substance | OVCAR-3 cell growth vs vehicle control
49 | 2-(3,4-dihydroxyphenyl)-5,7-dihydroxy-4-oxo-4H-chromen-3-yl palmitate [Compound 5] | significantly inhibit

same assay, conditions: crystal violet, spectrophotometer; read-out: IC50 anti-proliferative effect, OCC - (OVCAR)

Row | Substance | IC50 [µM]
50 | 2-(3,4-dihydroxyphenyl)-5,7-dihydroxy-4-oxo-4H-chromen-3-yl palmitate [Compound 5] | 79.2
